Holding throughout (type): physicochemical
Series [1] is described as follows: Xenon long-life fadeometer test of photochromic poly(methyl methacrylate) cast film (initial coloration density, T1/2, λmax), Example 9.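 On Initial color density: 0.5 part by weight compound dispersed with PMMA in 100 parts benzene.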 Conditions: poly(methyl methacrylate) cast film 0.1 mm; for Initial color density: initial coloration density (absorbance); for Initial color density / T1/2 (fatigue life): xenon fadeometer; for λmax: maximum absorption wavelength; for T1/2 (fatigue life): time for color density to decrease to half of initial value. The text has this: The thickness of the cast film was adjusted to 0.1 mm.
(§1) T1/2 is defined as the time required for the color density to decrease to half of its initial value when the film is exposed to the fadeometer.

Series [2] is described as follows: Fading speed of poly(methyl methacrylate) cast film after mercury lamp irradiation, Example 9. Conditions: mercury lamp 60 seconds at 20°±1° C., time to half absorbance after irradiation stopped. How it is done:
The fading speeds of the cast films prepared as above were measured by the following procedure.
The cast film was exposed to a mercury lamp (SHL-100 made by Toshiba Co., Ltd.) at 20°±1° C. for 60 seconds from a distance of 10 cm. Then, the irradiation was stopped, and the fading speed was determined from changes in the absorbance of the cast film measured by a spectrophotometer (220A made by Hitachi Limited). The fading speed is expressed by the time which is required to the absorbance of the cast film to a value half of (the absorbance of the cast film at a maximum absorption wavelength immediately after 60 second irradiation)--(the absorbance of the non-irradiated cast film at the maximum wavelength) after light irradiation for 60 seconds.

The nature of series [3]: Durability test of poly(allyl diglycol carbonate) lens impregnated with compound in silicone oil, Example 10. As for the experimental part:
as §1
The solution was impregnated in the surface of a lens composed of poly(allyl diglycol carbonate) at 200° C. for 1 hour. The concentration of the solution was adjusted to 1.0×10^-4 mole/g.

Series [4] in a line: Fatigue life of films of fulgimide or fulgide compounds with Cyasorb UV1084, Example 14. Conditions: with Cyasorb UV1084 (0.2 part) as ultraviolet stabilizer in poly(methyl methacrylate) film; xenon fadeometer.

Each structure is given as a SMILES string.

As to `CC1=C2C(=O)N(CC#N)C(=O)C2C2(c3sccc31)C1CC3CC(C1)CC2C3` (stereo not shown) [(2)], in series [1], the Initial color density came out at 0.83, the λmax was determined as 553 nm and the “T1/2 (fatigue life)” value came out at 46 h. In series [2], the Fading speed came out at 26 s. Also, in series [3] (impregnated from silicone oil), the Initial color density was 0.64 and the λmax is given as 562 nm. Further, the T1/2 in series [3] (impregnated from silicone oil at 200° C. for 1 hour, xenon fadeometer) was 50 h. This molecule returned a T1/2 in series [4] of 182 h.

As for `CC1=C2C(=O)N(CCc3ccc4ccccc4c3)C(=O)C2C2(CC3CCC2C3)c2sc(Br)cc21` (stereo not shown) [(3)], in series [1], the Initial color density came to 0.42, the λmax came to 535 nm and the “T1/2 (fatigue life)” value is 13 h. Moreover, the Fading speed in series [2] was 71 s. In series [4], this molecule registered a T1/2 of 77 h.

As for `CC1=C2C(=O)N(CCCCC(=O)OCCc3cccc4ccccc34)C(=O)C2C2(c3sccc31)C1CC3CC(C1)CC2C3` (stereo not shown) [(6)], in series [1], the Initial color density was determined as 0.49, the λmax is 538 nm and the “T1/2 (fatigue life)” value is 16 h. This molecule also came in with a Fading speed in series [2] of 76 s. This molecule returned a T1/2 in series [4] of 65 h.

As for `CCCCC12CC3CC(C1)C1(c4c(OC)cc(OC)cc4C(c4ccccc4)=C4C(=O)N(C(C)(C)C#N)C(=O)C41)C(C3)C2` (stereo not shown) [(17)], in series [1], the Initial color density is 0.49, the λmax is 550 nm and the “T1/2 (fatigue life)” value was found to be 48 h. The T1/2 in series [4] worked out at 188 h.

(Values after patent US4960678A, “Photochromic compounds” (Tokuyama Soda Kabushiki Kaisha, priority 1987, dated 1990).)
